{
  "source": "patent US12281080B2",
  "about": "“Quinoline-based compounds and methods of inhibiting CDK8/19” (University of South Carolina, priority 2018, dated 2025)",
  "key": {"[1]": {"target": "S6K1 (RPS6KB1) (Homo sapiens (Human), UniProt P23443)", "assay": "KINOMEscan scanMAX", "assay_type": "binding", "settings": "2000 nM; read-out: Percent Control"}, "[2]": {"target": "ASK2 (MAP3K6) (Homo sapiens (Human), UniProt O95382)", "assay": "KINOMEscan scanMAX", "assay_type": "binding", "settings": "2000 nM; read-out: Percent Control"}, "[3]": {"target": "MST4 (Homo sapiens (Human), UniProt Q9P289)", "sequence (Q9P289 whole entry)": "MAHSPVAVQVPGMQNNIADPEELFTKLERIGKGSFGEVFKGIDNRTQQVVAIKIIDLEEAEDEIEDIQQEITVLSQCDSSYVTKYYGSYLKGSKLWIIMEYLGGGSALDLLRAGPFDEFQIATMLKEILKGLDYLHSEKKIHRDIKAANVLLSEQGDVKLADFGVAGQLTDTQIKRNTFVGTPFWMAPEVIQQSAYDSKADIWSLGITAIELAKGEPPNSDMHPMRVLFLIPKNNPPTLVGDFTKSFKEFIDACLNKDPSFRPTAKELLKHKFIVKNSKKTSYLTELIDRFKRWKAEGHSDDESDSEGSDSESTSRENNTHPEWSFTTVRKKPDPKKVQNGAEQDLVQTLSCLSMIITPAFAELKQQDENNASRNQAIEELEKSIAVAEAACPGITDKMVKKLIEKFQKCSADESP", "assay": "KINOMEscan scanMAX", "assay_type": "binding", "settings": "2000 nM; read-out: Percent Control"}, "[4]": {"target": "SNARK (NUAK2) (Homo sapiens (Human), UniProt Q9H093)", "assay": "KINOMEscan scanMAX", "assay_type": "binding", "settings": "2000 nM; read-out: Percent Control"}, "[5]": {"target": "HIPK1 (Homo sapiens (Human), UniProt Q86Z02)", "assay": "KINOMEscan scanMAX", "assay_type": "binding", "settings": "2000 nM; read-out: Percent Control"}, "[6]": {"target": "ERBB3 (Homo sapiens (Human), UniProt P21860)", "assay": "KINOMEscan scanMAX", "assay_type": "binding", "settings": "2000 nM; read-out: Percent Control"}, "[7]": {"target": "AKT2 (Homo sapiens (Human), UniProt P31751)", "assay": "KINOMEscan scanMAX", "assay_type": "binding", "settings": "2000 nM; read-out: Percent Control"}, "[8]": {"system": "CDK8/19-mediated NFκB-driven transcription", "assay": "NFκB-dependent luciferase reporter assay in parental 293 reporter cells", "assay_type": "cell-based, human", "settings": "Homo sapiens"}, "[9]": {"target": "MRCKB (CDC42BPB) (Homo sapiens (Human), UniProt Q9Y5S2)", "assay": "KINOMEscan scanMAX", "assay_type": "binding", "settings": "2000 nM; read-out: Percent Control"}, "[10]": {"target": "RIOK1 (Homo sapiens (Human), UniProt Q9BRS2)", "assay": "KINOMEscan scanMAX", "assay_type": "binding", "settings": "2000 nM; read-out: Percent Control"}, "[11]": {"target": "SRC (Homo sapiens (Human), UniProt P12931)", "assay": "KINOMEscan scanMAX", "assay_type": "binding", "settings": "2000 nM; read-out: Percent Control"}, "[12]": {"target": "RPS6KA4(Kin.Dom.2-C-terminal) (Homo sapiens (Human), UniProt O75676)", "sequence (O75676 411-674)": "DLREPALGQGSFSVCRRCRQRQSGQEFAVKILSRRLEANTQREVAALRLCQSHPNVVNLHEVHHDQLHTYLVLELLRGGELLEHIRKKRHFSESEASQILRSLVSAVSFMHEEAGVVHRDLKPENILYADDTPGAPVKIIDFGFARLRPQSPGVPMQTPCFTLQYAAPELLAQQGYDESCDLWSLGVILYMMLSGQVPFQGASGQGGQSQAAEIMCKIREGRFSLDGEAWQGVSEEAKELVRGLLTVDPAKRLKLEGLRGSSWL", "assay": "KINOMEscan scanMAX", "assay_type": "binding", "settings": "2000 nM; read-out: Percent Control"}, "[13]": {"target": "PRKD3 (Homo sapiens (Human), UniProt O94806)", "sequence (O94806 whole entry)": "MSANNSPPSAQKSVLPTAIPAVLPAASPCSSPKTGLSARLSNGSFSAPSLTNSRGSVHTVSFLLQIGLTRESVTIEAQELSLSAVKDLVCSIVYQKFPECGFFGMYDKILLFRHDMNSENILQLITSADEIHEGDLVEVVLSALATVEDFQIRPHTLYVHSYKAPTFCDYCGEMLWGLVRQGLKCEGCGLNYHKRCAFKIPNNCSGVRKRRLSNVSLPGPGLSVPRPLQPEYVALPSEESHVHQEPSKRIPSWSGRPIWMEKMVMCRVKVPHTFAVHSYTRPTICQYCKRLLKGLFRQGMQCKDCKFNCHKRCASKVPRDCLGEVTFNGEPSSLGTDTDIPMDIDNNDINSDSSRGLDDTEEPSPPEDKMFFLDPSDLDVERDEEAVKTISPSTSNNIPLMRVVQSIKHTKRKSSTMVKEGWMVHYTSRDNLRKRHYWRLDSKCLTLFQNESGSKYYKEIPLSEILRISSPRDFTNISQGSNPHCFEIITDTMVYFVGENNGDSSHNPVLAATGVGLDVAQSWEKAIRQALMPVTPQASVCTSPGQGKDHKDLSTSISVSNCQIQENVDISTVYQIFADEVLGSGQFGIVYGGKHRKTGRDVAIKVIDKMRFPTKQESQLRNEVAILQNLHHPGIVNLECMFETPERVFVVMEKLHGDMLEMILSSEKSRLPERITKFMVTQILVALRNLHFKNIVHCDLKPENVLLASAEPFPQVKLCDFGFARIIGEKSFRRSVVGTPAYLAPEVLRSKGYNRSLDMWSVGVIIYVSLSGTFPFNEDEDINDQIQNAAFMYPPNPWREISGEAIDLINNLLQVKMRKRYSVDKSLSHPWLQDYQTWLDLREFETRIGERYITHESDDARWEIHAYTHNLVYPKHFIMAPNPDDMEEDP", "assay": "KINOMEscan scanMAX", "assay_type": "binding", "settings": "2000 nM; read-out: Percent Control"}, "[14]": {"target": "RSK3(Kin.Dom.2-C-terminal) (RPS6KA2) (Homo sapiens (Human), UniProt Q15349)", "sequence (Q15349 415-672)": "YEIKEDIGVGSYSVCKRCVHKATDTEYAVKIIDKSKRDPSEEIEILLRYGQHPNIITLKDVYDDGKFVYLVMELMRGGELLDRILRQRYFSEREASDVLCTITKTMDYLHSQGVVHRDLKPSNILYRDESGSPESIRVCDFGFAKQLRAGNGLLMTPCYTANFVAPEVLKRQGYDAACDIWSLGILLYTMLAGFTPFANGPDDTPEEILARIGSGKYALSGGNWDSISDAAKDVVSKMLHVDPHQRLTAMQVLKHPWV", "assay": "KINOMEscan scanMAX", "assay_type": "binding", "settings": "2000 nM; read-out: Percent Control"}, "[15]": {"target": "FGFR4 (Homo sapiens (Human), UniProt P22455)", "assay": "KINOMEscan scanMAX", "assay_type": "binding", "settings": "2000 nM; read-out: Percent Control"}, "[16]": {"target": "ROCK1 (Homo sapiens (Human), UniProt Q13464)", "assay": "KINOMEscan scanMAX", "assay_type": "binding", "settings": "2000 nM; read-out: Percent Control"}, "[17]": {"target": "FLT4 (Homo sapiens (Human), UniProt P35916)", "assay": "KINOMEscan scanMAX", "assay_type": "binding", "settings": "2000 nM; read-out: Percent Control"}, "[18]": {"target": "KIT(V559D) (Homo sapiens (Human), UniProt P10721, V559D)", "assay": "KINOMEscan scanMAX", "assay_type": "binding", "settings": "2000 nM; read-out: Percent Control"}, "[19]": {"target": "MUSK (Homo sapiens (Human), UniProt O15146)", "assay": "KINOMEscan scanMAX", "assay_type": "binding", "settings": "2000 nM; read-out: Percent Control"}, "[20]": {"target": "DRAK2 (STK17B) (Homo sapiens (Human), UniProt O94768)", "assay": "KINOMEscan scanMAX", "assay_type": "binding", "settings": "2000 nM; read-out: Percent Control"}, "[21]": {"target": "CLK3 (Homo sapiens (Human), UniProt P49761)", "assay": "KINOMEscan scanMAX", "assay_type": "binding", "settings": "2000 nM; read-out: Percent Control"}, "[22]": {"target": "AMPK-alpha1 (PRKAA1) (Homo sapiens (Human), UniProt Q13131)", "assay": "KINOMEscan scanMAX", "assay_type": "binding", "settings": "2000 nM; read-out: Percent Control"}, "[23]": {"assay": "Serum and tumor PK in mice bearing 22rv1 xenograft tumors", "assay_type": "in vivo", "settings": "i.p. 20 mg/kg, male NcrNU mice", "description": "To evaluate the PK of Senexin C in tumor tissues, Senexin C dissolved in 5% Dextrose was administered i.p. to male NcrNU mice bearing 22rv1 xenograft tumors (300˜500 mm^3) at 20 mg/kg. Both blood and tumor samples were collected at three different time points (3 mice per time point) after administration and Senexin C concentration in the serum and tumor tissue was measured by LC/MS/MS."}, "[24]": {"target": "NEK9 (Homo sapiens (Human), UniProt Q8TD19)", "sequence (Q8TD19 whole entry)": "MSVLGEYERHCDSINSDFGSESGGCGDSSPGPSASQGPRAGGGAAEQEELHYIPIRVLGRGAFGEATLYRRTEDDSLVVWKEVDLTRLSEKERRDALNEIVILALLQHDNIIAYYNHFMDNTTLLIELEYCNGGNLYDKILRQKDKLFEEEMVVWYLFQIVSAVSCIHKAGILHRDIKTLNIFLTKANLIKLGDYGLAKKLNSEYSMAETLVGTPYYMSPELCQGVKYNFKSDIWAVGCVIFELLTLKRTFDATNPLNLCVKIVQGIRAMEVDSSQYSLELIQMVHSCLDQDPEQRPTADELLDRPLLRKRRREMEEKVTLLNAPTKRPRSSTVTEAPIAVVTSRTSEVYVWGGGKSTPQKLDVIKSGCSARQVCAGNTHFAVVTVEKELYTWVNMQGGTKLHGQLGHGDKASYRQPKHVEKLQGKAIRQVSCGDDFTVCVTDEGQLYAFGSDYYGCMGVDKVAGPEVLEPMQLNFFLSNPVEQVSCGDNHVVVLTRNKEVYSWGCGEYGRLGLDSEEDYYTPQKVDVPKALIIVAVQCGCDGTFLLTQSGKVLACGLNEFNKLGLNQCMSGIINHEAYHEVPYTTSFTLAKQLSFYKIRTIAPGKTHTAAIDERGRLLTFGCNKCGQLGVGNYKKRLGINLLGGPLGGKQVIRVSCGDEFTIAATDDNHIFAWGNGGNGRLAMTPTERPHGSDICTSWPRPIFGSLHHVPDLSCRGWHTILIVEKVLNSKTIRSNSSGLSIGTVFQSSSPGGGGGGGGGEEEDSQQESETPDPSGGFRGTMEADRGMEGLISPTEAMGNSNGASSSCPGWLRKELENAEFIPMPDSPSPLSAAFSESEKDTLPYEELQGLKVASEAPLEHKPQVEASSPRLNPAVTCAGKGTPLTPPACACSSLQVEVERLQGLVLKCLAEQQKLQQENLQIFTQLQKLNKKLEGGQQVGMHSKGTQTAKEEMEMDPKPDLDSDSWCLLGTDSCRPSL", "assay": "KINOMEscan scanMAX", "assay_type": "binding", "settings": "2000 nM; read-out: Percent Control"}, "[25]": {"target": "MINK (MINK1) (Homo sapiens (Human), UniProt Q8N4C8)", "assay": "KINOMEscan scanMAX", "assay_type": "binding", "settings": "2000 nM; read-out: Percent Control"}, "[26]": {"target": "GRK4 (Homo sapiens (Human), UniProt P32298)", "assay": "KINOMEscan scanMAX", "assay_type": "binding", "settings": "2000 nM; read-out: Percent Control"}, "[27]": {"target": "CAMK2A (Homo sapiens (Human), UniProt Q9UQM7)", "assay": "KINOMEscan scanMAX", "assay_type": "binding", "settings": "2000 nM; read-out: Percent Control"}, "[28]": {"target": "JNK3 (MAPK10) (Homo sapiens (Human), UniProt P53779)", "assay": "KINOMEscan scanMAX", "assay_type": "binding", "settings": "2000 nM; read-out: Percent Control"}, "[29]": {"target": "RET(M918T) (Homo sapiens (Human), UniProt P07949, M918T)", "assay": "KINOMEscan scanMAX", "assay_type": "binding", "settings": "2000 nM; read-out: Percent Control"}, "[30]": {"target": "KIT-autoinhibited (Homo sapiens (Human), UniProt P10721)", "sequence (P10721 544-976 limits assumed)": "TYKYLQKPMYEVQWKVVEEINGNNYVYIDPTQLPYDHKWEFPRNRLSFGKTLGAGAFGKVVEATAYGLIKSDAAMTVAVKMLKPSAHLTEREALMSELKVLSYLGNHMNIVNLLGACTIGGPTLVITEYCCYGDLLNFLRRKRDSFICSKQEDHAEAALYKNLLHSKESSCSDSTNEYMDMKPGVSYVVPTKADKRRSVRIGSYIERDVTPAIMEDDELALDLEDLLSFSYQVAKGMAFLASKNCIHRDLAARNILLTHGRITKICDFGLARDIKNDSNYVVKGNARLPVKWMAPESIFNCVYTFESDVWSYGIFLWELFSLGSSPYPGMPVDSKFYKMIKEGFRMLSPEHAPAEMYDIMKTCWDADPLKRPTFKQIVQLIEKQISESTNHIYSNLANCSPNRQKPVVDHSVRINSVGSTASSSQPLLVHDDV", "assay": "KINOMEscan scanMAX", "assay_type": "binding", "settings": "2000 nM; read-out: Percent Control"}, "[31]": {"target": "TIE2 (TEK) (Homo sapiens (Human), UniProt Q02763)", "assay": "KINOMEscan scanMAX", "assay_type": "binding", "settings": "2000 nM; read-out: Percent Control"}, "[32]": {"target": "LYN (Homo sapiens (Human), UniProt P07948)", "assay": "KINOMEscan scanMAX", "assay_type": "binding", "settings": "2000 nM; read-out: Percent Control"}, "[33]": {"target": "PKN2 (Homo sapiens (Human), UniProt Q16513)", "sequence (Q16513 whole entry)": "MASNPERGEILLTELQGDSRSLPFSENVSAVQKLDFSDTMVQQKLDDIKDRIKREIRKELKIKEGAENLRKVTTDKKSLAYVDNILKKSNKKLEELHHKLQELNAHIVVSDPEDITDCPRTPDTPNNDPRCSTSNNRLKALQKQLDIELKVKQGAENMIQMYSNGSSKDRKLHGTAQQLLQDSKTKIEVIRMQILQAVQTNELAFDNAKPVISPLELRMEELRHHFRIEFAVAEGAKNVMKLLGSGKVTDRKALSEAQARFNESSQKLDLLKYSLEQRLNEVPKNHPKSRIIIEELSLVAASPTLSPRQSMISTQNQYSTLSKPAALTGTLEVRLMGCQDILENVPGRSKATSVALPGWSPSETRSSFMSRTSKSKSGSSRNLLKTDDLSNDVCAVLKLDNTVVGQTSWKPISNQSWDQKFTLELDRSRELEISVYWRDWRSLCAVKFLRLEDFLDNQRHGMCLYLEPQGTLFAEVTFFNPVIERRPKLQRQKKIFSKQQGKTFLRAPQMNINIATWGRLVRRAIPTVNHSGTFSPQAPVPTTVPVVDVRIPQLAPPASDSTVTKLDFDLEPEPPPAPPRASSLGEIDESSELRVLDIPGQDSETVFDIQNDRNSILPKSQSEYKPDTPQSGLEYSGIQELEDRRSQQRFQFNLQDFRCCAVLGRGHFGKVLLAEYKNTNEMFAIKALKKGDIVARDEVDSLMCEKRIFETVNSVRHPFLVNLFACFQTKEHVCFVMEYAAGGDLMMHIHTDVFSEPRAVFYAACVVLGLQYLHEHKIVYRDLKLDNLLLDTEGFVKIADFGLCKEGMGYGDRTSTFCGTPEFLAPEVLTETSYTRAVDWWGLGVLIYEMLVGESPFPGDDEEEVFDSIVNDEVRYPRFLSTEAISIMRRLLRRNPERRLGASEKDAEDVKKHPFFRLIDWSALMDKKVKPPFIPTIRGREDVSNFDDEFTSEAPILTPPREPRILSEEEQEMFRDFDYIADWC", "assay": "KINOMEscan scanMAX", "assay_type": "binding", "settings": "2000 nM; read-out: Percent Control"}, "[34]": {"target": "PKMYT1 (Homo sapiens (Human), UniProt Q99640)", "sequence (Q99640 whole entry)": "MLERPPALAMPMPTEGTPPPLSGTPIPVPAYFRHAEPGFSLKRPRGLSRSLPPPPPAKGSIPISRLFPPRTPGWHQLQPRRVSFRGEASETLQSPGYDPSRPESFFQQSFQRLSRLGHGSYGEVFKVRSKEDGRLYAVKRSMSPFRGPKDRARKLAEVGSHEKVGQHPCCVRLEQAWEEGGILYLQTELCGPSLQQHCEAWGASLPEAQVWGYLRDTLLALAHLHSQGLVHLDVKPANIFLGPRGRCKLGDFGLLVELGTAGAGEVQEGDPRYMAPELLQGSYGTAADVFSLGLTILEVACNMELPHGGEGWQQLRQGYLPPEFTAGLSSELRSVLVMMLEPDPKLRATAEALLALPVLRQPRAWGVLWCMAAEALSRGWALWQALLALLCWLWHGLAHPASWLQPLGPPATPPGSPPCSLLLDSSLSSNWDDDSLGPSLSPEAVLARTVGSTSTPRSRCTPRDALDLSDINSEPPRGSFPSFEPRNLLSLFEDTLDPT", "assay": "KINOMEscan scanMAX", "assay_type": "binding", "settings": "2000 nM; read-out: Percent Control"}, "[35]": {"target": "GRK2 (ADRBK1) (Homo sapiens (Human), UniProt P25098)", "assay": "KINOMEscan scanMAX", "assay_type": "binding", "settings": "2000 nM; read-out: Percent Control"}, "[36]": {"target": "RPS6KA4(Kin.Dom.1-N-terminal) (Homo sapiens (Human), UniProt O75676)", "sequence (O75676 33-301)": "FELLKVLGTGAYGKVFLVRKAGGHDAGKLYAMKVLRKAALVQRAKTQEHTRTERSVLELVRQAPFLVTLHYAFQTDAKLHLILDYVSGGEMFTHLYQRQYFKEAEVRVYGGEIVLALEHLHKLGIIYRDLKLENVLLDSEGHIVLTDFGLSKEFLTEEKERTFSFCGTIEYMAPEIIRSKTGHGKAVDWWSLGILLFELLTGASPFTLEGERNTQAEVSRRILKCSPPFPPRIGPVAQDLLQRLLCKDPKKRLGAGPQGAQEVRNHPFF", "assay": "KINOMEscan scanMAX", "assay_type": "binding", "settings": "2000 nM; read-out: Percent Control"}},
  "note": "Read-outs that look alike come from different tables or passages of the source.",
  "data": [
    {"compound": "CN1CCN(C(=O)c2ccc3cc(CCNc4ccnc5ccc(C#N)cc45)ccc3c2)CC1", "note": "[compound 6148, 4-((2-(6-(4-methylpiperazine-1-carbonyl)naphthalen-2-yl)ethyl)amino)quinoline-6-carbonitrile]", "values": [
      {"measurement": "remaining binding at 2 µM", "setting": "[1]", "result": 78, "unit": "%"},
      {"measurement": "remaining binding at 2 µM", "setting": "[2]", "result": 79, "unit": "%"},
      {"measurement": "remaining binding at 2 µM", "setting": "[3]", "result": 68, "unit": "%"},
      {"measurement": "remaining binding at 2 µM", "setting": "[4]", "result": 75, "unit": "%"},
      {"measurement": "remaining binding at 2 µM", "setting": "[5]", "result": 73, "unit": "%"},
      {"measurement": "remaining binding at 2 µM", "setting": "[6]", "result": 76, "unit": "%"},
      {"measurement": "remaining binding at 2 µM", "setting": "[7]", "result": 100, "unit": "%"},
      {"measurement": "IC50", "setting": "[8]; 293/NFkB-luc, read-out: IC50 (293-NFKB-Luc)", "result": 55, "unit": "nM"},
      {"measurement": "IC50", "setting": "[8]; HEK293, parental 293-derived reporter cell line, read-out: HEK293 NFKB CDK8 Reporter IC50", "result": 65, "unit": "nM"},
      {"measurement": "remaining binding at 2 µM", "setting": "[9]", "result": 100, "unit": "%"},
      {"measurement": "remaining binding at 2 µM", "setting": "[10]", "result": 94, "unit": "%"},
      {"measurement": "remaining binding at 2 µM", "setting": "[11]", "result": 92, "unit": "%"},
      {"measurement": "remaining binding at 2 µM", "setting": "[12]", "result": 62, "unit": "%"},
      {"measurement": "remaining binding at 2 µM", "setting": "[13]", "result": 100, "unit": "%"},
      {"measurement": "remaining binding at 2 µM", "setting": "[14]", "result": 91, "unit": "%"},
      {"measurement": "remaining binding at 2 µM", "setting": "[15]", "result": 96, "unit": "%"},
      {"measurement": "remaining binding at 2 µM", "setting": "[16]", "result": 52, "unit": "%"},
      {"measurement": "remaining binding at 2 µM", "setting": "[17]", "result": 97, "unit": "%"},
      {"measurement": "remaining binding at 2 µM", "setting": "[18]", "result": 95, "unit": "%"},
      {"measurement": "remaining binding at 2 µM", "setting": "[19]", "result": 90, "unit": "%"},
      {"measurement": "remaining binding at 2 µM", "setting": "[20]", "result": 87, "unit": "%"},
      {"measurement": "remaining binding at 2 µM", "setting": "[21]", "result": 65, "unit": "%"},
      {"measurement": "remaining binding at 2 µM", "setting": "[22]", "result": 94, "unit": "%"},
      {"measurement": "Clearance from tumor tissue compared with blood", "setting": "[23]", "result": "much slower clearance rate"},
      {"measurement": "Kp", "setting": "[23]; mouse, tumor tissue (relative to serum), ip, read-out: Amount in tumor tissue relative to blood", "result": "5 to 10"},
      {"measurement": "remaining binding at 2 µM", "setting": "[24]", "result": 97, "unit": "%"},
      {"measurement": "remaining binding at 2 µM", "setting": "[25]", "result": 56, "unit": "%"},
      {"measurement": "remaining binding at 2 µM", "setting": "[26]", "result": 100, "unit": "%"},
      {"measurement": "remaining binding at 2 µM", "setting": "[27]", "result": 100, "unit": "%"},
      {"measurement": "remaining binding at 2 µM", "setting": "[28]", "result": 61, "unit": "%"},
      {"measurement": "remaining binding at 2 µM", "setting": "[29]", "result": 85, "unit": "%"},
      {"measurement": "remaining binding at 2 µM", "setting": "[30]", "result": 88, "unit": "%"},
      {"measurement": "remaining binding at 2 µM", "setting": "[31]", "result": 89, "unit": "%"},
      {"measurement": "remaining binding at 2 µM", "setting": "[32]", "result": 88, "unit": "%"},
      {"measurement": "remaining binding at 2 µM", "setting": "[33]", "result": 89, "unit": "%"},
      {"measurement": "remaining binding at 2 µM", "setting": "[34]", "result": 100, "unit": "%"},
      {"measurement": "remaining binding at 2 µM", "setting": "[35]", "result": 63, "unit": "%"},
      {"measurement": "remaining binding at 2 µM", "setting": "[36]", "result": 100, "unit": "%"}
    ]}
  ]
}
